Test results taken from US10517926B2, “Oligopeptide having proinflammatory cytokine secretion-inhibiting activity” (Osaka University, priority 2015, dated 2019).

Key:
MG6 cells = experiment: Proinflammatory cytokine secretion inhibition, LPS-stimulated microglial cells (ELISA); format: cell-based, mouse; details: for proinflammatory cytokine secretion-inhibiting activity on the MG6 cells: same test as Example 2
Procedure: MG6 cells (mouse-derived microglial cell line) were cultured in a DMEM medium (+4% FBS) containing MHP1 or MHP2 (final concentration: 50 or 100 μg/ml), and LPS (final concentration: 2 ng/ml) for 24 hours by a standard method. After culture, the concentrations of IL-6 and TNFα in the medium were measured by the ELISA method. In the Examples of the present application, the ELISA method was performed using a kit (Quantikine ELISA Mouse TNF-α or Quantikine ELISA Mouse IL-6, produced by R&D Systems). The results are shown in FIG. 1 (IL-6) and FIG. 2 (TNFα).
The proinflammatory cytokine secretion-inhibiting effect was examined in the same as in Example 2, except that the final concentration of MHP1 was set to 100 μg/ml, and that RANKL full-length protein was used at a final concentration of 10 ng/ml or 100 ng/ml as the comparison target.

[1] = test system: osteoclast precursor cells; experiment: Osteoclast differentiation, Osteoclast Culture Kit (TRAP and nuclear staining); format: cell-based; details: with M-CSF 50 ng/ml; MHP1 30, 50 or 100 μg/ml or RANKL protein 50 ng/ml; FIG. 13
Procedure: Osteoclast Culture Kit V-2 (OSC33, produced by Cosmo Bio Co., Ltd.) was used. According to the manual of the kit, culture of osteoclast precursor cells was started in the presence of M-CSF (final concentration: 50 ng/ml) in the A and B groups, and in the presence of M-CSF (final concentration: 50 ng/ml) and MHP1 (final concentration: 30, 50, or 100 μg/ml) in the C and D groups. Thereafter, 24 hours to 7 days after the start of culture, the A group was cultured in the presence of M-CSF (final concentration: 50 ng/ml), the B group was cultured in the presence of M-CSF (final concentration: 50 ng/ml) and RANKL protein (final concentration: 50 ng/ml), the C group was cultured in the presence of M-CSF (final concentration: 50 ng/ml) and MHP1 (final concentration: 30, 50, or 100 μg/ml), and the D group was cultured in the presence of M-CSF (final concentration: 50 ng/ml), RANKL protein (final concentration: 50 ng/ml), and MHP1 (final concentration: 30, 50, or 100 μg/ml). After culture, the cells were subjected to TRAP staining and nuclear staining according to a standard method.

[2] = test system: LPS-administered mice (Balb/c); experiment: Septicemia model, LPS intraperitoneal, survival; format: in vivo, mouse; details: LPS 10 mg/kg + MHP2 5 mg/kg or 10 mg/kg i.p.; LPS only: 2 of 3 died; FIG. 17
Procedure: To wild-type mice (Balb/c, 5-week-old female mice), LPS (10 mg/kg) was intraperitoneally administered, or LPS (10 mg/kg) and MHP-2 (5 mg/kg or 10 mg/kg) were intraperitoneally administered. After administration, the survival rate of the mice was measured.

THP1 cells = experiment: Proinflammatory cytokine secretion inhibition, human macrophage cells; format: cell-based; details: MHP6 10-100 μg/ml or MHP1 100 μg/ml, LPS 2 ng/ml, 24 hours, FIG. 14
Procedure: THP1 cells (human-derived macrophage cell line) were cultured in a DMEM medium (+4% FBS) containing MHP6 (human-derived; final concentration: 10, 30, 50, or 100 μg/ml) or MHP1 (mouse-derived; final concentration: 100 μg/ml), and LPS (final concentration: 2 ng/ml) for 24 hours by a standard method. After culture, the concentration of IL-6 in the medium was measured by the ELISA method.

Row | Substance | proinflammatory cytokine secretion-inhibiting activity on the MG6 cells (MG6 cells) | other results
1 | LMVYVVKTSIKIPSSHNLMKGGSTKN (listed as Mus musculus) [MHP13] | showed proinflammatory cytokine secretion-inhibiting activity | –
2 | RANKL: RANKL protein (Recombinant Murin sRANKL Ligand (Cat No. 315-11): produced by Peprotech) (LMVYVVKTSIKIPSSHNLMKGGSTKNWSGN) [reference compound] | – | differentiation of osteoclasts by the substance itself [1]: promoted
3 | LMVYVVKTSIKIPSSHNLMKGG (listed as Mus musculus) [MHP5] | showed proinflammatory cytokine secretion-inhibiting activity | –
4 | LMVYVVKTSIKIPSSHNLMKGGS (listed as Mus musculus) [MHP12] | showed proinflammatory cytokine secretion-inhibiting activity | –
5 | DYLQLMVYVVKTSIKIPSSHNLMKGGSTKN (listed as Mus musculus) [MHP2] | – | mice that died [2]: no mouse; increase in the amount of IL-6 secretion by LPS (MG6 cells; MG6 cells, peptide 50 or 100 μg/ml, LPS 2 ng/ml, 24 hours, FIG. 1): suppressed; increase in the amount of TNFα secretion by LPS (MG6 cells; MG6 cells, peptide 50 or 100 μg/ml, LPS 2 ng/ml, 24 hours, FIG. 2): suppressed
6 | HETSGSVPADYLQLMVYVVKTSIKIPSS (listed as Mus musculus) [MHP3] | did not show proinflammatory cytokine secretion-inhibiting activity | –
7 | LMVYVVKTSIK (listed as Mus musculus) [MHP17] | showed proinflammatory cytokine secretion-inhibiting activity | –
8 | LMVYVTKTSIKIPSSHTLMKGGSTKYWSGN (listed as Homo sapiens) [MHP6] | – | proinflammatory cytokine (IL-6) secretion-inhibiting activity on human-derived macrophage cells (THP1 cells): exhibited proinflammatory cytokine secretion-inhibiting activity
9 | LMVYVVKTSIKIPSS (listed as Mus musculus) [MHP4] | showed proinflammatory cytokine secretion-inhibiting activity | –
